Measured values: patent US11007270B2, “Polymer-semaxanib moiety conjugates” (Nektar Therapeutics, priority 2010, dated 2021)
pIC50: −log10 of the molar value. Blank lines part the entries; values can stand above or below the molecule they belong to.

What was measured:
c-Kit = c-Kit (Homo sapiens, UniProt P10721); test: c-Kit tyrosine kinase inhibition, Caliper screening (fluorescent substrate phosphorylation, electrophoretic separation); format: biochemical; conditions: for pIC50: averages of replicate wells; for c-Kit Fold: fold of IC50 relative to sunitinib
c-Kit, sequence (P10721 26-976): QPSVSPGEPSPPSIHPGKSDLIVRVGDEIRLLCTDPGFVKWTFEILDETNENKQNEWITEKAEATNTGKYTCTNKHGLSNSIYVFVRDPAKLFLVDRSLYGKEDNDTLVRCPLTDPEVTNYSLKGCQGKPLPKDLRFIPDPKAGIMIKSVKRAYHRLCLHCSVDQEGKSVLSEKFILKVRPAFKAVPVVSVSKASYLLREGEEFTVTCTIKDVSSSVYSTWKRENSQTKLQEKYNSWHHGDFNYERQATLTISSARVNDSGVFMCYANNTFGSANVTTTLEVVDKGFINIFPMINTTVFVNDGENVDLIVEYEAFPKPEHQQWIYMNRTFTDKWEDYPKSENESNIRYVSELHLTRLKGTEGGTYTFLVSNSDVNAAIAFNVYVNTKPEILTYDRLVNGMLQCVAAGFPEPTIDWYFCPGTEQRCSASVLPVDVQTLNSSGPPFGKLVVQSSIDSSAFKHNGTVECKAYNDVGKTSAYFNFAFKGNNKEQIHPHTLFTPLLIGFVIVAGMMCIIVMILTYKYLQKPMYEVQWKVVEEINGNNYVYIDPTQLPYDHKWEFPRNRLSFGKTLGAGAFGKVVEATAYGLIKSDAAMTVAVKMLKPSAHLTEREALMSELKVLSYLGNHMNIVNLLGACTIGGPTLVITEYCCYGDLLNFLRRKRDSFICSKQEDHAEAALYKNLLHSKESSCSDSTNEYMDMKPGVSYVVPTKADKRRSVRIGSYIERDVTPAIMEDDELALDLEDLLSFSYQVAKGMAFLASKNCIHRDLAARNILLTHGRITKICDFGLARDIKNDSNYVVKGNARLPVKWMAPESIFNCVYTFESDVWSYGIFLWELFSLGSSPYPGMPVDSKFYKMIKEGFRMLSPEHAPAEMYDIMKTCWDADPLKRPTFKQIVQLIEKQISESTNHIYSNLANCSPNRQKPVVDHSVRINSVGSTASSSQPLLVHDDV

RET = RET (Homo sapiens, UniProt P07949); test: RET kinase inhibition, Caliper screening (fluorescent substrate phosphorylation, electrophoretic separation); conditions: for RET Fold: fold of IC50 relative to sunitinib
RET, sequence (P07949 29-1114, species assumed): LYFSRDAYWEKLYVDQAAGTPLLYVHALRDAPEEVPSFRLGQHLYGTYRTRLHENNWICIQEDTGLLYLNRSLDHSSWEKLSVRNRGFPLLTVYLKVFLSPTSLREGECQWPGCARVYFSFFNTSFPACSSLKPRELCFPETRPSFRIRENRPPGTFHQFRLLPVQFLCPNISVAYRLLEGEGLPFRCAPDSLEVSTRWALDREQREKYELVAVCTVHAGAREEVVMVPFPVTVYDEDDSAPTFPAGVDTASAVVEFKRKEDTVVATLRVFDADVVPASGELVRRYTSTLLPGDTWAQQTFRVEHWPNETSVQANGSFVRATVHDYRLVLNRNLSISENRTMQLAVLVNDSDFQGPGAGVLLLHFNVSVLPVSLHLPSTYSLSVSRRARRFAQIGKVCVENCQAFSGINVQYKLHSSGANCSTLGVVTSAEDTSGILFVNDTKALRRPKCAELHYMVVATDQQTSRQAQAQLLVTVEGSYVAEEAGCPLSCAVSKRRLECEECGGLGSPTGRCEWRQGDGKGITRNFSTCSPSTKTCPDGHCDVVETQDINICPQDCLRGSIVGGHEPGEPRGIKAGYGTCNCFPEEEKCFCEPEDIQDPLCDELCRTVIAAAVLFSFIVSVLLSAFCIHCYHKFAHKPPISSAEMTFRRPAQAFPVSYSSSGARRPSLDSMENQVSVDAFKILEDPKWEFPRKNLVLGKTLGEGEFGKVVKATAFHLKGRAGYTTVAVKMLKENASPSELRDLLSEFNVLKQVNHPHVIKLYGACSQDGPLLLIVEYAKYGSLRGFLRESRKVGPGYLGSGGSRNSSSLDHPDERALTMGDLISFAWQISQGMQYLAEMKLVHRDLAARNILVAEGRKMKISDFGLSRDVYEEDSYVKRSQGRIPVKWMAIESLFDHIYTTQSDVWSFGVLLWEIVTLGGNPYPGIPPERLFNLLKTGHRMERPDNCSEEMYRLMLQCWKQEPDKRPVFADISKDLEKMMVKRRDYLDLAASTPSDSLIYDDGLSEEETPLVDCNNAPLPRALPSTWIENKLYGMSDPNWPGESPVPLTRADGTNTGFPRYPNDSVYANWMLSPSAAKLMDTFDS

VEGFR-2 = VEGFR-2 (Homo sapiens, UniProt P35968); test: VEGFR-2 kinase inhibition, Caliper screening (fluorescent substrate phosphorylation, electrophoretic separation); conditions: for VEGFR-2 Fold: fold of IC50 relative to sunitinib
VEGFR-2, sequence (P35968 20-1356, species assumed): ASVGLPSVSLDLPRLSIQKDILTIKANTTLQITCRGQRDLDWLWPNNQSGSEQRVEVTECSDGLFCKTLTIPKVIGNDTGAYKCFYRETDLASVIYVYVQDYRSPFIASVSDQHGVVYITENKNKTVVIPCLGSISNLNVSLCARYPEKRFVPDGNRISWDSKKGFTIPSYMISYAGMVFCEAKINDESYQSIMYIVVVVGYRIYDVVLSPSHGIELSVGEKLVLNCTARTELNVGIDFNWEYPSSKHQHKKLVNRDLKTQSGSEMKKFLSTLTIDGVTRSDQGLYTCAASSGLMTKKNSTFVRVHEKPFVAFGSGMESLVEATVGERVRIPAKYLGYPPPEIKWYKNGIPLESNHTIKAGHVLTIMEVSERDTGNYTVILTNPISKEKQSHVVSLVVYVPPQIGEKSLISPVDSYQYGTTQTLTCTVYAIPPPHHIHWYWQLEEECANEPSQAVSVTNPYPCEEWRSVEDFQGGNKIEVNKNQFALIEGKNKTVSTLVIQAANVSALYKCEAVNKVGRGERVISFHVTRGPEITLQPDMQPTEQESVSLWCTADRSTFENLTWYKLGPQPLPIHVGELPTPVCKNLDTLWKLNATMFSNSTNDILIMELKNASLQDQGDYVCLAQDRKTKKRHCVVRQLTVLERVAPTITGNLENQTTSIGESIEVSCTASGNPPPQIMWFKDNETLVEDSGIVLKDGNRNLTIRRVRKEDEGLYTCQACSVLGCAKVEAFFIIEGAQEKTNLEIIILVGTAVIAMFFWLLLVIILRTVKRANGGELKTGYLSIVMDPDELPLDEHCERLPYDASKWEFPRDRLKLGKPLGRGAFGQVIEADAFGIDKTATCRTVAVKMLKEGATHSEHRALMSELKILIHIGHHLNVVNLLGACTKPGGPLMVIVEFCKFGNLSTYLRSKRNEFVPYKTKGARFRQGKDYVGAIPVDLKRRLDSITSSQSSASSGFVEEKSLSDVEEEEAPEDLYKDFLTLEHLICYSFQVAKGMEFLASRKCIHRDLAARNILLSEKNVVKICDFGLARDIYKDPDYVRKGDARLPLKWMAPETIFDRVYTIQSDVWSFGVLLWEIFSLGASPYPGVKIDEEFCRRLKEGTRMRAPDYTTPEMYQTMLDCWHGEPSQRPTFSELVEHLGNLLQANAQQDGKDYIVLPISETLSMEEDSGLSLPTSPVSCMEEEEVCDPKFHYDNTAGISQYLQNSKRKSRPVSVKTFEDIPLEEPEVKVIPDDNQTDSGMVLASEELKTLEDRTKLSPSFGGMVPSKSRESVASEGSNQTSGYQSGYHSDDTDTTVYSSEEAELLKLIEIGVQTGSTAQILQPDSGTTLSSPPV

[1] = concentration 1.0E−05 (unit not given)
[2] = concentration 1.0E−06 (unit not given)
[3] = concentration 1.0E−07 (unit not given)
[4] = concentration 1.0E−08 (unit not given)
[5] = concentration 1.0E−09 (unit not given)
[6] = concentration 1.0E−10 (unit not given)
[7] = concentration 3.0E−05 (unit not given)
[8] = concentration 3.0E−06 (unit not given)
[9] = concentration 3.0E−07 (unit not given)
[10] = concentration 3.0E−08 (unit not given)
[11] = concentration 3.0E−09 (unit not given)
[12] = concentration 3.0E−10 (unit not given)

pIC50 (c-Kit): 6.52
c-Kit AVG % Activity at Specific Concentration (c-Kit; [1]): −1%
c-Kit AVG % Activity at Specific Concentration (c-Kit; [2]): 11%
c-Kit AVG % Activity at Specific Concentration (c-Kit; [3]): 75%
c-Kit AVG % Activity at Specific Concentration (c-Kit; [4]): 97%
c-Kit AVG % Activity at Specific Concentration (c-Kit; [5]): 98%
c-Kit AVG % Activity at Specific Concentration (c-Kit; [6]): 94%
c-Kit AVG % Activity at Specific Concentration (c-Kit; [7]): −1%
c-Kit AVG % Activity at Specific Concentration (c-Kit; [8]): 1%
c-Kit AVG % Activity at Specific Concentration (c-Kit; [9]): 49%
c-Kit AVG % Activity at Specific Concentration (c-Kit; [10]): 93%
c-Kit AVG % Activity at Specific Concentration (c-Kit; [11]): 98%
c-Kit AVG % Activity at Specific Concentration (c-Kit; [12]): 94%
c-Kit Fold (c-Kit): 4.10
pIC50 (RET): 6.00
RET AVG % Activity at Specific Concentration (RET; [1]): 5%
RET AVG % Activity at Specific Concentration (RET; [2]): 52%
RET AVG % Activity at Specific Concentration (RET; [3]): 92%
RET AVG % Activity at Specific Concentration (RET; [4]): 100%
RET AVG % Activity at Specific Concentration (RET; [5]): 102%
RET AVG % Activity at Specific Concentration (RET; [6]): 100%
RET AVG % Activity at Specific Concentration (RET; [7]): 0%
RET AVG % Activity at Specific Concentration (RET; [8]): 20%
RET AVG % Activity at Specific Concentration (RET; [9]): 75%
RET AVG % Activity at Specific Concentration (RET; [10]): 94%
RET AVG % Activity at Specific Concentration (RET; [11]): 97%
RET AVG % Activity at Specific Concentration (RET; [12]): 99%
RET Fold (RET): 23.02
pIC50 (VEGFR-2): 6.37
VEGFR-2 AVG % Activity at Specific Concentration (VEGFR-2; [1]): −3%
VEGFR-2 AVG % Activity at Specific Concentration (VEGFR-2; [2]): 24%
VEGFR-2 AVG % Activity at Specific Concentration (VEGFR-2; [3]): 73%
VEGFR-2 AVG % Activity at Specific Concentration (VEGFR-2; [4]): 85%
VEGFR-2 AVG % Activity at Specific Concentration (VEGFR-2; [5]): 86%
VEGFR-2 AVG % Activity at Specific Concentration (VEGFR-2; [6]): 86%
VEGFR-2 AVG % Activity at Specific Concentration (VEGFR-2; [7]): −6%
VEGFR-2 AVG % Activity at Specific Concentration (VEGFR-2; [8]): 2%
VEGFR-2 AVG % Activity at Specific Concentration (VEGFR-2; [9]): 50%
VEGFR-2 AVG % Activity at Specific Concentration (VEGFR-2; [10]): 78%
VEGFR-2 AVG % Activity at Specific Concentration (VEGFR-2; [11]): 82%
VEGFR-2 AVG % Activity at Specific Concentration (VEGFR-2; [12]): 84%
VEGFR-2 Fold (VEGFR-2): 8.78
SMILES: COCCOCCOCCOCCOCCOCCOCCOCCNC(=O)c1c(C)[nH]c(/C=C2\C(=O)Nc3ccc(F)cc32)c1C [mPEG8-semaxanib, (Z)-5-((5-fluoro-2-oxoindolin-3-ylidene)methyl)-2,4-dimethyl-1H-pyrrole-3-mPEG8-amide]

pIC50 (c-Kit): 6.92
c-Kit AVG % Activity at Specific Concentration (c-Kit; [1]): −1%
c-Kit AVG % Activity at Specific Concentration (c-Kit; [2]): 2%
c-Kit AVG % Activity at Specific Concentration (c-Kit; [3]): 58%
c-Kit AVG % Activity at Specific Concentration (c-Kit; [4]): 97%
c-Kit AVG % Activity at Specific Concentration (c-Kit; [5]): 104%
c-Kit AVG % Activity at Specific Concentration (c-Kit; [6]): 100%
c-Kit AVG % Activity at Specific Concentration (c-Kit; [7]): −1%
c-Kit AVG % Activity at Specific Concentration (c-Kit; [8]): 1%
c-Kit AVG % Activity at Specific Concentration (c-Kit; [9]): 16%
c-Kit AVG % Activity at Specific Concentration (c-Kit; [10]): 88%
c-Kit AVG % Activity at Specific Concentration (c-Kit; [11]): 98%
c-Kit AVG % Activity at Specific Concentration (c-Kit; [12]): 102%
c-Kit Fold (c-Kit): 1.60
pIC50 (RET): 6.64
RET AVG % Activity at Specific Concentration (RET; [1]): −1%
RET AVG % Activity at Specific Concentration (RET; [2]): 12%
RET AVG % Activity at Specific Concentration (RET; [3]): 68%
RET AVG % Activity at Specific Concentration (RET; [4]): 96%
RET AVG % Activity at Specific Concentration (RET; [5]): 92%
RET AVG % Activity at Specific Concentration (RET; [6]): 92%
RET AVG % Activity at Specific Concentration (RET; [7]): −1%
RET AVG % Activity at Specific Concentration (RET; [8]): 3%
RET AVG % Activity at Specific Concentration (RET; [9]): 38%
RET AVG % Activity at Specific Concentration (RET; [10]): 90%
RET AVG % Activity at Specific Concentration (RET; [11]): 95%
RET AVG % Activity at Specific Concentration (RET; [12]): 94%
RET Fold (RET): 5.35
pIC50 (VEGFR-2): 6.96
VEGFR-2 AVG % Activity at Specific Concentration (VEGFR-2; [1]): −3%
VEGFR-2 AVG % Activity at Specific Concentration (VEGFR-2; [2]): 0%
VEGFR-2 AVG % Activity at Specific Concentration (VEGFR-2; [3]): 47%
VEGFR-2 AVG % Activity at Specific Concentration (VEGFR-2; [4]): 90%
VEGFR-2 AVG % Activity at Specific Concentration (VEGFR-2; [5]): 87%
VEGFR-2 AVG % Activity at Specific Concentration (VEGFR-2; [6]): 93%
VEGFR-2 AVG % Activity at Specific Concentration (VEGFR-2; [7]): −6%
VEGFR-2 AVG % Activity at Specific Concentration (VEGFR-2; [8]): −3%
VEGFR-2 AVG % Activity at Specific Concentration (VEGFR-2; [9]): 16%
VEGFR-2 AVG % Activity at Specific Concentration (VEGFR-2; [10]): 78%
VEGFR-2 AVG % Activity at Specific Concentration (VEGFR-2; [11]): 90%
VEGFR-2 AVG % Activity at Specific Concentration (VEGFR-2; [12]): 93%
VEGFR-2 Fold (VEGFR-2): 2.24
SMILES: COCCOCCOCCNC(=O)c1c(C)[nH]c(/C=C2\C(=O)Nc3ccc(F)cc32)c1C [mPEG3-semaxanib, (Z)-5-((5-fluoro-2-oxoindolin-3-ylidene)methyl)-2,4-dimethyl-1H-pyrrole-3-mPEG3-amide]
